Results: ChEMBL document CHEMBL3392977, “Synthesis and biological evaluation of adamantane-based aminophenols as a novel class of antiplasmodial agents” (Bioorg Med Chem Lett, 2015)
In brackets after ≈: the same amount, converted by molar mass.

Tests used:
[1] = tested on: Plasmodium falciparum; assay: Antiplasmodial activity against multidrug-resistant Plasmodium falciparum K1 by SYBR Green-based method; type: functional, organism-based
[2] = tested on: Plasmodium falciparum; assay: Antiplasmodial activity against Plasmodium falciparum NF54 by SYBR Green-based method; type: functional, organism-based
[3] = tested on: THP-1; assay: Cytotoxicity against human THP1 cells; type: cell-based
[4] = Selectivity index, ratio of IC50 for human A549 cells to IC50 for Plasmodium falciparum; type: toxicity, cell-based; details: read-out: Ratio IC50
[5] = Octanol-water partition coefficient, log D by shake-flask method; type: physicochemical
[6] = Protein binding in human plasma; type: ADME, cell-free
[7] = Clearance in rat hepatocytes assessed per million cells at 1 uM after 5 to 120 mins by LC-MS/MS analysis; type: ADME, cell-based, Hepatocyte; details: read-out: CLH
[8] = tested on: Liver microsome; assay: Clearance in human liver microsomes at 1 uM after 2 to 30 mins by LC-MS/MS analysis; type: ADME
[9] = target: hERG (KCNH2) (Homo sapiens, UniProt Q12809); assay: Inhibition of human ERG at 11.1 uM
[10] = Solubility of the compound […]; type: physicochemical

Chain of hERG (KCNH2) (Q12809 whole entry): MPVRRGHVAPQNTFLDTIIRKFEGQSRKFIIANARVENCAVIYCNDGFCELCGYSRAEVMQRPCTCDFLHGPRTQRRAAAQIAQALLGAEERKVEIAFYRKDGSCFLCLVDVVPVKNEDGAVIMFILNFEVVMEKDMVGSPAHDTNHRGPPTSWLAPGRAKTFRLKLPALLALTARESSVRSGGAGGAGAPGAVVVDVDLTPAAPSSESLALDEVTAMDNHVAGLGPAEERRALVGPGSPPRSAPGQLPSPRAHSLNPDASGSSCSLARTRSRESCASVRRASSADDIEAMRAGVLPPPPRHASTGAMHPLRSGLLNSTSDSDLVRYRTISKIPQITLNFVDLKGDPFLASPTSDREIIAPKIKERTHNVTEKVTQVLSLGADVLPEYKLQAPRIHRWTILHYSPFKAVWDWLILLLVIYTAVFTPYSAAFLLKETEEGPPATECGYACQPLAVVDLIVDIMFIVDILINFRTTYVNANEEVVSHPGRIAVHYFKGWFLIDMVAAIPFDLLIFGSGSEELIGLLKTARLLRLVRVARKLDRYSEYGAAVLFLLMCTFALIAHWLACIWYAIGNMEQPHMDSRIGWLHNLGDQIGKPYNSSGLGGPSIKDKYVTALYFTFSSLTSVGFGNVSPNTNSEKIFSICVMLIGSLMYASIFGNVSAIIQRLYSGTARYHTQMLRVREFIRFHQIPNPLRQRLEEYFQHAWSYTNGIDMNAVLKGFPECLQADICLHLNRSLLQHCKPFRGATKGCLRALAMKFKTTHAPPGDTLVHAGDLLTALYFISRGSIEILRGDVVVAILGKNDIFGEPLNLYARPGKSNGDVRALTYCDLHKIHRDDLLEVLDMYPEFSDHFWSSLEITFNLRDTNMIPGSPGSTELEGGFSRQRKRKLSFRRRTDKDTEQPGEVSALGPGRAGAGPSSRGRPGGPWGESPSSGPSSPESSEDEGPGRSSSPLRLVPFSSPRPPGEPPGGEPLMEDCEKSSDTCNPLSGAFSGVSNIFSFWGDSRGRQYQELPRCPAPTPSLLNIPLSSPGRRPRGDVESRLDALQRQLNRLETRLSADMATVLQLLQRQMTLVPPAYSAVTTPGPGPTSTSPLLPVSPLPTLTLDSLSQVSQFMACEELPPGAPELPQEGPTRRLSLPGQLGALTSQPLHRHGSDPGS

Compound `Cc1ccc(CNC2C3CC4CC(C3)CC2C4)c(O)c1` (stereo not drawn) has an IC50 [1] of 0.015 µM and an IC50 [2] of 0.043 µM.

With `Oc1cccc(F)c1CNCC12CC3CC(CC(C3)C1)C2` the IC50 [1] was 0.008 µM and the IC50 [2] was 0.028 µM.

With `O=C1C(O)=C([C@H]2CC[C@H](c3ccc(Cl)cc3)CC2)C(=O)c2ccccc21` [ATOVAQUONE] the IC50 [1] was 0.0023 µM.

Compound `c1ccc(CNCC23CC4CC(CC(C4)C2)C3)cc1` has an IC50 [1] of over 2 µM and an IC50 [2] of over 2 µM.

`O=C(NCC12CC3CC(CC(C3)C1)C2)c1ccccc1O` gave an IC50 [1] of 0.41 µM and an IC50 [2] of over 0.5 µM.

For `CC(NCC12CC3CC(CC(C3)C1)C2)c1cc(Br)ccc1O` (stereo not drawn), the Activity [3] was “Non-toxic”, the selectivity ratio [4] was over 1220 and the IC50 [1] was 0.012 µM. The IC50 [2] was 0.041 µM.

For `CCNCc1ccc(C)cc1O`, the IC50 [1] was over 2 µM and the IC50 [2] was over 2 µM.

With `Oc1ccc(C(F)(F)F)cc1CNCC12CC3CC(CC(C3)C1)C2` the Activity [3] was “Non-toxic”, the selectivity ratio [4] was over 500 and the IC50 [1] was 0.012 µM. It also gave an IC50 [2] of 0.1 µM.

With `Cc1ccc(CNCC2CC2)c(O)c1` the IC50 [1] was 0.52 µM and the IC50 [2] was 1.4 µM.

With `COc1ccc(CNCC23CC4CC(CC(C4)C2)C3)c(O)c1` the logD [5] was 2.7, the fraction unbound [6] was 0.044 and the hepatocyte CLint at 1 µM [7] was 391 µL/min/1e6 cells. For the same compound, the IC50 [1] was 0.006 µM, the CLH [8] was 59 µL/min and the IC50 [2] was 0.022 µM. It also gave an inhibition at 11.1 µM [9] of 46.2% and a solubility [10] of 446 µM (≈ 134 µg/mL).

With `Oc1ccc(Cl)cc1CNCC12CC3CC(CC(C3)C1)C2` the Activity [3] was “Non-toxic”, the logD [5] was 4 and the fraction unbound [6] was 0.004. For the same compound, the selectivity ratio [4] was 5290, the hepatocyte CLint at 1 µM [7] was 208 µL/min/1e6 cells and the IC50 [1] was under 0.004 µM. It also gave a CLH [8] of 80 µL/min, an IC50 [2] of 0.005 µM and an inhibition at 11.1 µM [9] of 26.8%. For the same compound, the solubility [10] was 43 µM (≈ 13.2 µg/mL).

With `Oc1cc(Cl)cc(Cl)c1CNCC12CC3CC(CC(C3)C1)C2` the Activity [3] was “Non-toxic”, the selectivity ratio [4] was over 6250 and the IC50 [1] was under 0.004 µM. For the same compound, the IC50 [2] was 0.008 µM.

With `Oc1ccccc1CNCC12CC3CC(CC(C3)C1)C2` the IC50 [1] was 0.01 µM and the IC50 [2] was 0.072 µM.

For `Cc1ccc(O)c(CNCC23CC4CC(CC(C4)C2)C3)c1`, the Activity [3] was “Non-toxic”, the logD [5] was 3.3 and the fraction unbound [6] was 0.031. The selectivity ratio [4] was over 1160, the hepatocyte CLint at 1 µM [7] was 134 µL/min/1e6 cells and the IC50 [1] was 0.015 µM. The CLH [8] was 93 µL/min, the IC50 [2] was 0.043 µM and the inhibition at 11.1 µM [9] was 28.3%. For the same compound, the solubility [10] was 97 µM (≈ 27.7 µg/mL).

`C[C@@H]1CC[C@H]2[C@@H](C)C(=O)O[C@@H]3O[C@@]4(C)CC[C@@H]1[C@]32OO4` [ARTEMISININ] showed an IC50 [2] of 0.007 µM.

For `Cc1ccc(O)c(CNCC23CC4CC(CC(C4)C2)C3)n1`, the Activity [3] was “Non-toxic”, the logD [5] was 3 and the fraction unbound [6] was 0.122. For the same compound, the selectivity ratio [4] was over 1560, the hepatocyte CLint at 1 µM [7] was 49 µL/min/1e6 cells and the IC50 [1] was 0.0077 µM. It also gave a CLH [8] of 13 µL/min, an IC50 [2] of 0.032 µM and an inhibition at 11.1 µM [9] of 7.9%. The solubility [10] was 237 µM (≈ 67.9 µg/mL).

For `COc1cccc(F)c1CNCC12CC3CC(CC(C3)C1)C2`, the IC50 [1] was 1.1 µM and the IC50 [2] was over 2 µM.

For `Oc1ccc(Br)cc1CNCC12CC3CC(CC(C3)C1)C2`, the Activity [3] was “Non-toxic”, the selectivity ratio [4] was 4780 and the IC50 [1] was under 0.004 µM. The IC50 [2] was 0.007 µM.

For `Oc1c(F)cc(Br)cc1CNCC12CC3CC(CC(C3)C1)C2`, the Activity [3] was “Non-toxic”, the logD [5] was 3.7 and the fraction unbound [6] was 0.005. The selectivity ratio [4] was over 3330, the hepatocyte CLint at 1 µM [7] was 162 µL/min/1e6 cells and the IC50 [1] was under 0.004 µM. The CLH [8] was 92 µL/min, the IC50 [2] was 0.014 µM and the inhibition at 11.1 µM [9] was 9.2%. It also gave a solubility [10] of 4 µM (≈ 1.47 µg/mL).

`CN(Cc1ccccc1O)CC12CC3CC(CC(C3)C1)C2` showed an IC50 [1] of 0.27 µM and an IC50 [2] of over 0.5 µM.

In the case of `Cc1ccc(CNCC23CC4CC(CC(C4)C2)C3)c(O)c1`, the IC50 [1] is reported as under 0.004 µM and the IC50 [2] is reported as 0.006 µM.

With `Cc1ccc(CNC2CCCCC2)c(O)c1` the IC50 [1] was 0.13 µM and the IC50 [2] was 0.73 µM.
